Assay results from patent EP2459560B1, “RING-ANNULATED DIHYDROPYRROLO[2,L-A]ISOQUINOLINES” (Merck Sharp & Dohme B.V., priority 2009, dated 2011).

Biological target: T1, human FSH receptor (Homo sapiens, UniProt P23945)
T1 construct: expressed in transfected cells; host or cells: Chinese Hamster Ovary (CHO) cells, stably transfected; cotransfected with CRE/promoter-firefly luciferase reporter
T1 sequence (P23945 18-695): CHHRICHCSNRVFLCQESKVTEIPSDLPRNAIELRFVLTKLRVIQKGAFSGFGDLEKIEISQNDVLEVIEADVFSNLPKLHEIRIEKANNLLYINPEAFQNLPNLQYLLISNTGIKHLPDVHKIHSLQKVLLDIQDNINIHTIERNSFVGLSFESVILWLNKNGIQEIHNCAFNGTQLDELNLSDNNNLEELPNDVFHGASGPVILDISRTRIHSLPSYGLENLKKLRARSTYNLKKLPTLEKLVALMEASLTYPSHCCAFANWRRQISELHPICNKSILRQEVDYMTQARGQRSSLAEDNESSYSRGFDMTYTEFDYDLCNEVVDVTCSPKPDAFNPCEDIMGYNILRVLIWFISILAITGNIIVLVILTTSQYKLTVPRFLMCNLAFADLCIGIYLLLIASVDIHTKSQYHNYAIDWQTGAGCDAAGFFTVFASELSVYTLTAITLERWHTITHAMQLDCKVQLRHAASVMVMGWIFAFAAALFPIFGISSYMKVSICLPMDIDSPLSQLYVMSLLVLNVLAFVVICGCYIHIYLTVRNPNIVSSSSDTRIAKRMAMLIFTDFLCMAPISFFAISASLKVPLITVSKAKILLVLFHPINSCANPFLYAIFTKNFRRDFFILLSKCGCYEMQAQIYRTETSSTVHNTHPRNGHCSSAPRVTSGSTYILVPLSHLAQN
Assay: Agonistic activity at the human FSH receptor expressed in CHO cells (CRE-luciferase reporter)
Format: cell-based
Settings: CHO cells stably transfected with the human FSH receptor and a CRE/luciferase reporter, 4 hours of incubation, pEC50 is -logEC50; for EC50: read-out: hFSHRago (CHO luc) pEC50 (converted)
Experimental: For the determination a software program such as MathIQ (version 2.0, ID Business Solutions Limited) can be used.
Agonistic activity of compounds at the human FSH receptor expressed in CHO cells
Agonistic activity of the compounds at the human FSH receptor was determined in Chinese Hamster Ovary (CHO) cells stably transfected with the human FSH receptor and cotransfected with a cAMP responsive element (CRE)/promotor directing the expression of a firefly luciferase reporter gene. […] The final concentration of DMSO was 1%. After 4 hours of incubation, plates were allowed to adjust to room temperature for 1 hour. Then, Luclite (PerkinElmer) solution was added to the wells and cells were allowed to lyse for at least 1 hour at room temperature. Subsequently, luciferase activity was measured in a luminescence counter. The signal is expressed as counts per second (cps).

Compound	hFSHRago (CHO luc) pEC50	EC50 [nM]
9-tert-butyl-3-methoxy-2-pyridin-3-yl-14-(1,3-thiazol-5-yl)-5,6,10,11,12,13-hexahydroazocino[4',3':4,5]pyrrolo[2,1-a]isoquinolin-8(9H)-one [11j]	8.51	
COc1cc2c(cc1-c1cnn(C)c1)-c1c(-c3cccs3)c3c(n1CC2)C(=O)N(C(C)(C)C)CCC3 [4h]		64.6
COc1cc2c(cc1-c1cnccn1)-c1c(-c3cccs3)c3c(n1CC2)C(=O)N(C(C)(C)C)CCC3 [4i, 9-tert-butyl-2-(pyrazin-2-yl)-3-methoxy-13-(2-thienyl)-5,6,9,10,11,12-hexahydro-8H-azepino[4',3':4,5]pyrrolo[2,1-a]isoquinolin-8-one]		13.8
COc1cc2c(cc1-c1cccnc1)-c1c(-c3cccs3)c3c(n1CC2)C(=O)N(C(C)(C)C)CCSC3 [9k, 9-tert-butyl-3-methoxy-2-pyridin-3-yl-14-(2-thienyl)-5,6,10,11,13,13a-hexahydro-7aH-[1,4]thiazocino[7',6':4,5]pyrrolo[2,1-a]isoquinolin-8(9H)-one]		0.316
COc1cc2c(cc1[C@@H](O)[C@H](O)CO)-c1c(-c3cccs3)c3c(n1CC2)C(=O)N(C(C)(C)C)CCCC3 [21i]		5.25
